Experimental data taken from patent US10988456B2, “O-aminoheteroaryl alkynyl-containing compound, preparation method therefor, and use thereof” (SHANGHAI INSTITUTE OF MATERIA MEDICA, CHINESE ACADEMY OF …, priority 2017, dated 2021).

Columns and labels:
[1] = tested on: human gastric cancer SNU-16 xenografts; settings: mouse, in vivo
Description: (§1) The tumor tissue in the vigorous growth period was cut into 1.5 mm^3, and inoculated subcutaneously in the right axilla of nude mice under aseptic conditions. The diameter of the xenograft in nude mice was measured with a vernier caliper. The animals were randomly divided into groups when the average tumor volume was grown to about 190 mm^3. […] The diameter of the xenograft was measured twice a week during the entire experiment, and the body weight of the mice was weighed. The tumor volume (TV) was calculated as: TV=½×a×b^2, where a and b represented length and width, respectively. The relative tumor volume (RTV) was calculated based on the measured results, and the formula was: RTV=Vt/V0, wherein V0 represented the tumor volume obtained when the mice was divided and administered (i.e., d0), and Vt represented the tumor volume at each measurement. The anti-tumor activity evaluation index was the relative tumor proliferation rate T/C (%), and the calculation formula was as follows: T/C (%)=(TRTV/CRTV)×100%, wherein TRTV was TRV in treatment group; and CRTV was RTV in negative control group.

[2] = tested on: human gastric cancer SNU-16 xenografts; assay: Growth of subcutaneous xenografts of human gastric cancer SNU-16 in nude mice (comparative compounds study); settings: for relative tumor proliferation rate T/C: day 21; for Weight (g, mean ± SD): SNU-16 tumor-bearing mice
Description: as §1

## CN1CCN(Cc2ccc(NC(=O)c3ccc(Cl)c(C#Cc4cccnc4)c3)cc2C(F)(F)F)CC1 [HuFGFR1-117]
[1]
  toxicity / condition of the mice (in words): dry skin, molting, and poor condition
[2]; SNU-16, 20 mg/kg orally once a day, d0
  Relative tumor volume RTV (mean ± SD): 1.00 ± 0.00
[2]; SNU-16, 20 mg/kg orally once a day, d3
  Relative tumor volume RTV (mean ± SD): 1.51 ± 0.37
[2]; SNU-16, 20 mg/kg orally once a day, d7
  Relative tumor volume RTV (mean ± SD): 1.75 ± 0.47
[2]; SNU-16, 20 mg/kg orally once a day, d10
  Relative tumor volume RTV (mean ± SD): 1.49 ± 0.14
[2]; SNU-16, 20 mg/kg orally once a day, d14
  Relative tumor volume RTV (mean ± SD): 2.06 ± 0.38
[2]; SNU-16, 20 mg/kg orally once a day, d17
  Relative tumor volume RTV (mean ± SD): 2.55 ± 0.55
[2]; SNU-16, 20 mg/kg orally once a day, d21
  Relative tumor volume RTV (mean ± SD): 2.78 ± 0.58
[2]; SNU-16, 20 mg/kg orally once a day
  relative tumor proliferation rate T/C: 47.88%
[2]; SNU-16, 100 mg/kg group
  animal deaths: one mouse died on the 9th and 10th day respectively
[2]; SNU-16, 100 mg/kg orally once a day (administration interrupted), d0
  Relative tumor volume RTV (mean ± SD): 1.00 ± 0.00
[2]; SNU-16, 100 mg/kg orally once a day (administration interrupted), d3
  Relative tumor volume RTV (mean ± SD): 1.53 ± 0.39
[2]; SNU-16, 100 mg/kg orally once a day (administration interrupted), d7
  Relative tumor volume RTV (mean ± SD): 0.80 ± 0.18
[2]; SNU-16, 100 mg/kg orally once a day (administration interrupted), d10
  Relative tumor volume RTV (mean ± SD): 0.49 ± 0.08
[2]; SNU-16, 100 mg/kg orally once a day (administration interrupted), d14
  Relative tumor volume RTV (mean ± SD): 0.51 ± 0.19
[2]; SNU-16, 100 mg/kg orally once a day (administration interrupted), d17
  Relative tumor volume RTV (mean ± SD): 0.75 ± 0.22
[2]; SNU-16, 100 mg/kg orally once a day (administration interrupted), d21
  Relative tumor volume RTV (mean ± SD): 0.83 ± 0.31
[2]; SNU-16, 100 mg/kg orally, administration interrupted
  relative tumor proliferation rate T/C: 14.38%
[2]; SNU-16, HuFGFR1-113 at 20 mg/kg, HuFGFR1-117 dose not stated
  weight of the tumor-bearing mice (in words): significantly decreased
[2]; 20 mg/kg orally once a day, d0
  Weight (g, mean ± SD): 22.5 ± 1.9 g
[2]; 20 mg/kg orally once a day, d3
  Weight (g, mean ± SD): 23.6 ± 2.1 g
[2]; 20 mg/kg orally once a day, d7
  Weight (g, mean ± SD): 22.7 ± 2.0 g
[2]; 20 mg/kg orally once a day, d10
  Weight (g, mean ± SD): 22.7 ± 2.3 g
[2]; 20 mg/kg orally once a day, d14
  Weight (g, mean ± SD): 23.6 ± 2.4 g
[2]; 20 mg/kg orally once a day, d17
  Weight (g, mean ± SD): 24.2 ± 2.5 g
[2]; 20 mg/kg orally once a day, d21
  Weight (g, mean ± SD): 24.7 ± 2.3 g
[2]; 100 mg/kg orally once a day (administration interrupted), d0
  Weight (g, mean ± SD): 23.6 ± 0.7 g
[2]; 100 mg/kg orally once a day (administration interrupted), d3
  Weight (g, mean ± SD): 24.4 ± 1.8 g
[2]; 100 mg/kg orally once a day (administration interrupted), d7
  Weight (g, mean ± SD): 21.1 ± 1.9 g
[2]; 100 mg/kg orally once a day (administration interrupted), d10
  Weight (g, mean ± SD): 17.6 ± 1.8 g
[2]; 100 mg/kg orally once a day (administration interrupted), d14
  Weight (g, mean ± SD): 19.7 ± 2.0 g
[2]; 100 mg/kg orally once a day (administration interrupted), d17
  Weight (g, mean ± SD): 22.6 ± 1.5 g
[2]; 100 mg/kg orally once a day (administration interrupted), d21
  Weight (g, mean ± SD): 23.0 ± 2.4 g
